From patent US20100215579A1, “PHEN-NAPHTHALENE AND PHEN-QUINOLINE DERIVATIVES AND THEIR USE FOR BINDING AND IMAGING AMYLOID PLAQUES” (The Trustees of the University of Pennsylvania, priority 2007, published 2010)
Each block holds one compound with its values, some of them ahead of it.

Assays:
amyloid plaques = molecular target: T1, amyloid plaques (Homo sapiens, UniProt P05067); assay: Ki values of Phen-Nap, Nap-Phen derivatives (Ki binding data)
T1 construct: fibrillary Aβ plaques consisting predominately of aggregates of Aβ40 and Aβ42 peptides
T1 sequence (P05067 672-713 limits assumed): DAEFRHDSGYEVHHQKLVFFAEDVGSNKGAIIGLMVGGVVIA
T1 sequence (P05067 672-711 limits assumed): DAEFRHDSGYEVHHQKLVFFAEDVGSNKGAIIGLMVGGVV

[1] = Log P (octanol/Na2HPO4 buffer pH 7.4); type: physicochemical
[2] = Biodistribution in ICR mice after an iv injection; type: in vivo
Source text: Biodistribution in ICR Mice After an iv Injection of [^18F][4-(6-{2-[2-(2-Fluoro-ethoxy)-ethoxy]-ethoxy}-naphthalen-2-yl)-phenyl]-methyl-amine in 1% EtOH/0.1% BSA in Water
(% dose/organ, avg of 3 mice±SD)
(% dose/g, avg of 3 mice±SD)
Biodistribution in ICR Mice After an iv Injection of [^18F]19a in 3% EtOH/0.1% BSA in Water
Biodistribution in ICR Mice After an iv Injection of [^18F]34a in 5% EtOH/0.1% BSA in Water
Biodistribution in ICR Mice After an iv Injection of [^18F]32a in 1% EtOH/0.1% BSA in Water

[3] = Blood, 2 min after iv injection
[4] = Blood, 30 min after iv injection
[5] = Bone, 30 min after iv injection
[6] = Brain, 2 min after iv injection
[7] = Brain, 30 min after iv injection
[8] = Heart, 2 min after iv injection
[9] = Heart, 30 min after iv injection
[10] = Kidney, 2 min after iv injection
[11] = Kidney, 30 min after iv injection
[12] = Kidney, 1 hr after iv injection
[13] = Kidney, 2 hr after iv injection
[14] = Liver, 2 min after iv injection
[15] = Liver, 30 min after iv injection
[16] = Lung, 30 min after iv injection
[17] = Muscle, 2 min after iv injection
[18] = Muscle, 30 min after iv injection
[19] = Muscle, 1 hr after iv injection
[20] = Muscle, 2 hr after iv injection
[21] = Skin, 30 min after iv injection
[22] = Spleen, 2 min after iv injection
[23] = Spleen, 30 min after iv injection
[24] = Spleen, 1 hr after iv injection
[25] = Spleen, 2 hr after iv injection

Ki (amyloid plaques): 1.6 nM | logP ([1]; pH 7.4): 3.22
Structure (SMILES): CNc1ccc(-c2ccc3cc(OCCOCCOCCF)ccc3c2)cc1 [Compound 13a, 4-(6-(2-(2-(2-fluoroethoxy)ethoxy)ethoxy)naphthalen-2-yl)-N-methylbenzenamine]

% dose/g [2, 3]: 2.50 ± 0.14 % dose/g | % dose/organ [2, 3]: 4.29 ± 0.20 % dose/organ | % dose/g [2, 4]: 1.49 ± 0.15 % dose/g | % dose/organ [2, 4]: 2.51 ± 0.18 % dose/organ | % dose/g ([2]; Blood, 1 hr after iv injection): 1.61 ± 0.12 % dose/g | % dose/organ ([2]; Blood, 1 hr after iv injection): 2.87 ± 0.20 % dose/organ | % dose/g ([2]; Blood, 2 hr after iv injection): 1.52 ± 0.23 % dose/g | % dose/organ ([2]; Blood, 2 hr after iv injection): 2.58 ± 0.26 % dose/organ | % dose/g ([2]; Bone, 2 min after iv injection): 1.11 ± 0.11 % dose/g | % dose/organ ([2]; Bone, 2 min after iv injection): 3.82 ± 0.33 % dose/organ | % dose/g [2, 5]: 1.16 ± 0.20 % dose/g | % dose/organ [2, 5]: 3.87 ± 0.43 % dose/organ | % dose/g ([2]; Bone, 1 hr after iv injection): 1.49 ± 0.18 % dose/g | % dose/organ ([2]; Bone, 1 hr after iv injection): 5.31 ± 0.31 % dose/organ | % dose/g ([2]; Bone, 2 hr after iv injection): 2.33 ± 0.43 % dose/g | % dose/organ ([2]; Bone, 2 hr after iv injection): 7.84 ± 0.91 % dose/organ | % dose/g [2, 6]: 10.2 ± 1.09 % dose/g | % dose/organ [2, 6]: 4.61 ± 0.60 % dose/organ | % dose/g [2, 7]: 2.23 ± 0.29 % dose/g | % dose/organ [2, 7]: 1.02 ± 0.11 % dose/organ | % dose/g ([2]; Brain, 1 hr after iv injection): 1.88 ± 0.20 % dose/g | % dose/organ ([2]; Brain, 1 hr after iv injection): 0.90 ± 0.08 % dose/organ | % dose/g ([2]; Brain, 2 hr after iv injection): 1.90 ± 0.25 % dose/g | % dose/organ ([2]; Brain, 2 hr after iv injection): 0.85 ± 0.12 % dose/organ | % dose/g [2, 8]: 10.7 ± 2.06 % dose/g | % dose/organ [2, 8]: 1.26 ± 0.20 % dose/organ | % dose/g [2, 9]: 2.86 ± 0.30 % dose/g | % dose/organ [2, 9]: 0.36 ± 0.05 % dose/organ | % dose/g ([2]; Heart, 1 hr after iv injection): 2.20 ± 0.31 % dose/g | % dose/organ ([2]; Heart, 1 hr after iv injection): 0.29 ± 0.03 % dose/organ | % dose/g ([2]; Heart, 2 hr after iv injection): 1.71 ± 0.13 % dose/g | % dose/organ ([2]; Heart, 2 hr after iv injection): 0.19 ± 0.01 % dose/organ | % dose/g [2, 10]: 13.6 ± 0.10 % dose/g | % dose/organ [2, 10]: 5.22 ± 0.33 % dose/organ | % dose/g [2, 11]: 4.41 ± 0.49 % dose/g | % dose/organ [2, 11]: 1.69 ± 0.22 % dose/organ | % dose/g [2, 12]: 3.57 ± 0.64 % dose/g | % dose/organ [2, 12]: 1.36 ± 0.09 % dose/organ | % dose/g [2, 13]: 2.47 ± 0.45 % dose/g | % dose/organ [2, 13]: 1.00 ± 0.24 % dose/organ | % dose/g [2, 14]: 18.2 ± 0.95 % dose/g | % dose/organ [2, 14]: 21.2 ± 0.76 % dose/organ | % dose/g [2, 15]: 11.9 ± 1.63 % dose/g | % dose/organ [2, 15]: 14.2 ± 0.91 % dose/organ | % dose/g ([2]; Liver, 1 hr after iv injection): 8.99 ± 1.19 % dose/g | % dose/organ ([2]; Liver, 1 hr after iv injection): 11.8 ± 0.65 % dose/organ | % dose/g ([2]; Liver, 2 hr after iv injection): 6.72 ± 0.58 % dose/g | % dose/organ ([2]; Liver, 2 hr after iv injection): 8.29 ± 1.09 % dose/organ | % dose/g ([2]; Lung, 2 min after iv injection): 6.83 ± 0.07 % dose/g | % dose/organ ([2]; Lung, 2 min after iv injection): 1.34 ± 0.03 % dose/organ | % dose/g [2, 16]: 2.87 ± 0.32 % dose/g | % dose/organ [2, 16]: 0.54 ± 0.06 % dose/organ | % dose/g ([2]; Lung, 1 hr after iv injection): 2.42 ± 0.34 % dose/g | % dose/organ ([2]; Lung, 1 hr after iv injection): 0.48 ± 0.06 % dose/organ | % dose/g ([2]; Lung, 2 hr after iv injection): 1.96 ± 0.29 % dose/g | % dose/organ ([2]; Lung, 2 hr after iv injection): 0.36 ± 0.05 % dose/organ | % dose/g [2, 17]: 0.65 ± 0.01 % dose/g | % dose/organ [2, 17]: 6.40 ± 0.14 % dose/organ | % dose/g [2, 18]: 1.50 ± 0.21 % dose/g | % dose/organ [2, 18]: 14.5 ± 2.59 % dose/organ | % dose/g [2, 19]: 1.33 ± 0.17 % dose/g | % dose/organ [2, 19]: 13.5 ± 0.83 % dose/organ | % dose/g [2, 20]: 0.98 ± 0.08 % dose/g | % dose/organ [2, 20]: 9.55 ± 0.31 % dose/organ | % dose/g ([2]; Skin, 2 min after iv injection): 0.58 ± 0.07 % dose/g | % dose/organ ([2]; Skin, 2 min after iv injection): 2.13 ± 0.27 % dose/organ | % dose/g [2, 21]: 1.03 ± 0.12 % dose/g | % dose/organ [2, 21]: 3.70 ± 0.28 % dose/organ | % dose/g ([2]; Skin, 1 hr after iv injection): 1.47 ± 0.12 % dose/g | % dose/organ ([2]; Skin, 1 hr after iv injection): 5.67 ± 0.85 % dose/organ | % dose/g ([2]; Skin, 2 hr after iv injection): 1.12 ± 0.05 % dose/g | % dose/organ ([2]; Skin, 2 hr after iv injection): 4.12 ± 0.12 % dose/organ | % dose/g [2, 22]: 4.11 ± 1.02 % dose/g | % dose/organ [2, 22]: 0.47 ± 0.08 % dose/organ | % dose/g [2, 23]: 2.16 ± 0.05 % dose/g | % dose/organ [2, 23]: 0.21 ± 0.00 % dose/organ | % dose/g [2, 24]: 1.89 ± 0.27 % dose/g | % dose/organ [2, 24]: 0.17 ± 0.01 % dose/organ | % dose/g [2, 25]: 1.48 ± 0.20 % dose/g | % dose/organ [2, 25]: 0.14 ± 0.02 % dose/organ | Log P ([1]; octanol/0.05 M Na2HPO4 buffer (pH 7.4)): 3.23
Structure (SMILES): CNc1ccc(-c2ccc3nc(OCCOCCOCC[18F])ccc3c2)cc1 [[^18F]34a]
